Read-outs that look alike come from different tables or passages of the source.
How the values were obtained:
[1] = test system: iloprost-stimulated cAMP accumulation in platelets (P2Y12 regulation of adenylate cyclase); assay: Inhibition by ADP of iloprost-stimulated cAMP accumulation in platelets (EIA); format: cell-based; details: Homo sapiens, Platelet, citrated PRP, read-out: inhibition of iloprost-stimulated cAMP formation; for inhibition at 1 µM: 1 μM ADP; for inhibition at 2 µM: 2 μM ADP; for inhibition at 5 µM: 5 μM ADP
Procedure: Platelet cAMP content was measured in 20 selected subjects by incubating 270 μL of PRP with 10 μL of a solution of the stable prostacyclin analog iloprost (20 μg/L, final concentration) (Ilomédine®, Schering-Plough) for 1 min, with stirring, then adding 20 μL of saline or ADP (1, 2 or 5 μM). The reaction was stopped 3 min later by adding 20 μL of 12% trichloroacetic acid. CAMP was then extracted and measured with an enzyme immunoassay (EIA) (Amersham, Pharmacia Biotech, Orsay, France) according to the manufacturer's instructions, without knowledge of the subject's P2Y12 genotype.

platelets = assay: ADP-induced platelet aggregation in platelet-rich plasma (photometric aggregometry); format: cell-based, human; details: 2 μM ADP; for maximal aggregation: mean±SEM; for maximal aggregation in response to ADP (median): citrated PRP, average of visits 1 and 2
Procedure: Venous blood was collected between 8:00 and 10:00 am, after an overnight fast, in tubes containing either 0.105 M sodium citrate (1 vol/9 vol) (BD Vacutainer®, Becton Dickinson, Le Pont de Claix, France) or 50 μg/mL lepirudine (Refludan®, Hoechst, Paris, France) using a 19-gauge needle and no tourniquet. The first 2 ml of blood was discarded. Platelet-rich plasma (PRP) was obtained by centrifugation at 1000 rpm for 10 min at room temperature. Autologous platelet-poor plasma, obtained by further centrifugation at 4000 rpm for 15 min, was used to adjust the platelet count of PRP to 250×10^9/L.
Aggregation studies were performed within 2 hours after blood collection. Aggregation was measured at 37° C. by using a photometric method on a four-channel aggregometer (Regulest® Amneville, France). A 280-μL aliquot of PRP was incubated for 3 min at 37° C. and then was stirred at 1100 rpm for 2 min before adding 20 μL of saline or ADP (Sigma-Aldrich, St Quentin Fallavier, France) at 1, 2 or 5 μM (final concentration). The platelet aggregation response was recorded for 5 min.

[2] = platelets from carriers of the H2 haplotype
[3] = platelets from non carriers of the H2 haplotype

Nc1ncnc2c1ncn2[C@@H]1O[C@H](COP(=O)(O)OP(=O)(O)O)[C@@H](O)[C@H]1O [ADP, adenosine 5′-diphosphate]
inhibition at 1 µM [1, 2]: 31%
inhibition at 1 µM [1, 3]: 13%
inhibition at 2 µM [1, 2]: 39%
inhibition at 2 µM [1, 3]: 31%
inhibition at 5 µM [1, 2]: 50%
inhibition at 5 µM [1, 3]: 37%
maximal aggregation (platelets; citrate-anticoagulated PRP (low Ca++), 10 carriers of the H2 allele): 71.5%±5.2%
maximal aggregation (platelets; citrate-anticoagulated PRP (low Ca++), 10 non carriers of the H2 allele): 50.7%±7.2%
maximal aggregation in response to ADP (median) (platelets; subjects carrying no H2 alleles (H1/H1, n=74)): 34.7%
maximal aggregation in response to ADP (median) (platelets; subjects carrying one H2 allele (H1/H2, n=21)): 67.9%
maximal aggregation in response to ADP (median) (platelets; subjects carrying two H2 alleles (H2/H2, n=3)): 82.4%
maximal aggregation (platelets; hirudin-anticoagulated PRP (physiological Ca++), 10 carriers of the H2 allele): 53.8%±3.9%
maximal aggregation (platelets; hirudin-anticoagulated PRP (physiological Ca++), 10 non carriers of the H2 allele): 42.8%±3.4%
